Test results taken from paper PMC10304880, “Novel Tryptanthrin Derivatives with Selectivity as c–Jun N–Terminal Kinase (JNK) 3 Inhibitors” (Molecules, 2023).

Assays:
[1] = CellTiter-Glo cytotoxicity in MonoMac-6 cells; format: cell-based; conditions: human, 24 h incubation
Experimental: (§1) Prior to evaluation of the compounds in cell-based assays, we measured their cytotoxicity in human monocytic THP-1Blue and MonoMac-6 cells during a 24 h incubation. […] Thus, these compounds were all excluded from subsequent testing in these cell lines.
(§2) Cytotoxicity was analyzed with a CellTiter-Glo Luminescent Cell Viability Assay Kit from Promega (Madison, WI, USA), according to the manufacturer’s protocol. Cells were treated with the compound under investigation and cultivated for 24 h. After treatment, the cells were allowed to equilibrate to room temperature for 30 min, substrate was added, and the luminescence measured using a Fluoroscan Ascent FL (Thermo Fisher Scientific, Waltham, MA, USA). The cell IC50 values were calculated by plotting the percentage inhibition against the logarithm of inhibitor concentration (at least five points).

JNK1 = biological target: T1, JNK1 (Homo sapiens, UniProt P45983); assay: KINOMEscan JNK1 binding (Kd); conditions: 12-point series, max 33 μM, duplicate
T1 construct: purchased Eurofins Pharma Discovery (KINOMEscan service)
Experimental: (§3) All compounds were evaluated for their ability to bind to JNK1-3 using the KINOMEscan platform.
(§4) Compounds were submitted for dissociation constant (Kd) determination using KINOMEscan (Eurofins Pharma Discovery, San Diego, CA, USA), as described previously. […] Primary screening at fixed concentrations of compounds was performed in duplicate. To determine dissociation constant Kd, a 12-point half-log dilution series (a maximum concentration of 33 μM) was used.

JNK3 = biological target: T2, JNK3 (Homo sapiens, UniProt P53779); assay: KINOMEscan JNK3 binding (Kd); conditions: for Kd: KINOMEscan, 12-point series, max 33 μM, duplicate; for Selectivity Index JNK1/JNK3 / Selectivity Index JNK2/JNK3: ratio of Kd values
T2 construct: purchased Eurofins Pharma Discovery (KINOMEscan service)
Experimental: as §3, §4

[2] = CellTiter-Glo cytotoxicity in THP-1Blue cells; format: cell-based; conditions: human, 24 h incubation
Experimental: as §1, §2

JNK2 = biological target: T3, JNK2 (Homo sapiens, UniProt P45984); assay: KINOMEscan JNK2 binding (Kd); conditions: 12-point series, max 33 μM, duplicate
T3 construct: purchased Eurofins Pharma Discovery (KINOMEscan service)
Experimental: as §3, §4

[3] = system: NF-κB/AP-1 transcriptional activity in THP-1Blue cells; assay: LPS-induced NF-κB/AP-1 alkaline phosphatase reporter assay in THP-1Blue cells; format: cell-based; conditions: Homo sapiens, 30 min pretreatment, 250 ng/mL LPS, 24 h; read-out: AP Production in THP–1Blue IC50
Experimental: Activation of AP-1/NF-κB was measured using an alkaline phosphatase reporter gene assay in THP1-Blue cells. Human monocytic THP-1Blue cells were stably transfected with a secreted embryonic alkaline phosphatase gene that was under the control of a promoter inducible by AP-1/NF-κB.
(§5) Figure 2 Effect of compounds 4d and 4e on NF-κB/AP-1 activity and IL-6 production. Panel (A) THP-1Blue cells were pretreated with the indicated compounds or DMSO for 30 min, followed by addition of 250 ng/mL LPS or buffer for 24 h. […] Panel (B) MonoMac-6 cells were pretreated with the indicated compounds or DMSO for 30 min, followed by addition of 250 ng/mL LPS or buffer for 24 h. Production of IL-6 in the supernatants was evaluated with ELISA. The data in each panel are presented as the mean ± S.D. of triplicate samples from one experiment that is representative of three independent experiments.

[4] = system: IL-6 production in MonoMac-6 cells; assay: LPS-induced IL-6 production in MonoMac-6 cells (ELISA); format: cell-based, human; conditions: 250 ng/mL LPS, 24 h
Experimental: All cells were cultured at 37 °C in a humidified atmosphere containing 5% CO2. Human THP-1Blue monocytic cells obtained from InvivoGen (San Diego, CA, USA) were cultured in RPMI 1640 medium (Mediatech Inc., Herndon, VA, USA) supplemented with 10% (v/v) fetal bovine serum (FBS), 4.5 g/L glucose, 100 μg/mL streptomycin, 100 U/mL penicillin, 100 μg/mL phleomycin (Zeocin), and 10 μg/mL blasticidin S. Human monocyte-macrophage MonoMac-6 cells (Deutsche Sammlung von Mikroorganismen und Zellkulturen GmbH, Braunschweig, Germany) were grown in RPMI 1640 medium supplemented with 10% (v/v) FBS, 10 μg/mL bovine insulin, 100 μg/mL streptomycin, and 100 U/mL penicillin.
as §5, with “Panel” for “Figure 2 Effect of compounds 4d and 4e on NF-κB/AP-1 activity and IL-6 production. Panel”

[5] = Homo sapiens, MONO-MAC-6, 30 min pretreatment

T2 sequence (P53779 whole entry): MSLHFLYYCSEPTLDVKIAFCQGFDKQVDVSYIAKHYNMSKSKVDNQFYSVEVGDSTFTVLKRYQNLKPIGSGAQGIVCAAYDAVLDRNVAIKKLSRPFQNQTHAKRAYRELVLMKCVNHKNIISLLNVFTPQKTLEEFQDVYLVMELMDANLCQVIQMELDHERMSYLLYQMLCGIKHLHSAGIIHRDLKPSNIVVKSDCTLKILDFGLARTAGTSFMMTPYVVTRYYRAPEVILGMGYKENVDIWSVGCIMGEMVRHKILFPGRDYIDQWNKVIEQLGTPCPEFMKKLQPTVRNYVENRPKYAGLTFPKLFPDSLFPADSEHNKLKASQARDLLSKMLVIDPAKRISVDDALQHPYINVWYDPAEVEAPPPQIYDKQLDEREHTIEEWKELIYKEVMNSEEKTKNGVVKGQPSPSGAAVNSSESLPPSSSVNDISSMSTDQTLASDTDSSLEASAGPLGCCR
T1 sequence (P45983 whole entry): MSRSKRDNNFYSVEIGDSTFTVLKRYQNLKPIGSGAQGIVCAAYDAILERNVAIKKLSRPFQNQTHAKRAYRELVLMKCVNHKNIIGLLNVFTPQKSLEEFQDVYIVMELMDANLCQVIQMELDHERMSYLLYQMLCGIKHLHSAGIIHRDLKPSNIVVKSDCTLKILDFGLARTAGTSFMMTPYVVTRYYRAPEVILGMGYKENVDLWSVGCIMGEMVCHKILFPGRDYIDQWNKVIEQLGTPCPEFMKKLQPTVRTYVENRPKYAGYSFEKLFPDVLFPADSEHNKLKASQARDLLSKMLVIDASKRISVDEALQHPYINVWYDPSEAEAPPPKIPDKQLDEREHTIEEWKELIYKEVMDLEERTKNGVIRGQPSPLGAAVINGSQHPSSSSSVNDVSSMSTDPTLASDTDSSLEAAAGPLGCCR
T3 sequence (P45984 whole entry): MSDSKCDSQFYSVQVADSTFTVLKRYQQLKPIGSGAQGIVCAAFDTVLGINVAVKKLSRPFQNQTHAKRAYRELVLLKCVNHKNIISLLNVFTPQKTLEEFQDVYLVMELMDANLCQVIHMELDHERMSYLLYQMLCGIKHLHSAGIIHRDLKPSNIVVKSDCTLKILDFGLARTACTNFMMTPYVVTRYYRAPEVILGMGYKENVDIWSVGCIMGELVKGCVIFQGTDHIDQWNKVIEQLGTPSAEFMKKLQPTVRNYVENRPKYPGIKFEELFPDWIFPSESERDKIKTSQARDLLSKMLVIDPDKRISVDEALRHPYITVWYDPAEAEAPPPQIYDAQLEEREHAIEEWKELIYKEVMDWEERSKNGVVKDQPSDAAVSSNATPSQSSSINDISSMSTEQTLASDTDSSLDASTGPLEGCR

| SMILES | Kd (JNK1) | selectivity index (JNK3 versus JNK1 and JNK2) (JNK3) | Kd (JNK3) | Selectivity Index JNK1/JNK3 (JNK3) | Selectivity Index JNK2/JNK3 (JNK3) | Kd (JNK2) | IC50 [3] | melting point | IC50 [4, 5] | IC50 ([4]; 30 min pretreatment) | IC50 at 24 h [1] | IC50 at 24 h [2] |
| --- | --- | --- | --- | --- | --- | --- | --- | --- | --- | --- | --- | --- |
| CCc1ccc2c(c1)C(=NO)c1nc3ccccc3c(=O)n1-2 [Compound 4c, 8-Ethylindolo[2,1-b]quinazolin-6,12-dione Oxime] | 2.6 ± 0.4 µM |  | 0.49 ± 0.09 µM | 5.3 | 2.7 | 1.3 ± 0.01 µM | 0.7 ± 0.2 µM | > 225 °C (dec.) |  |  | 13.3 ± 1.3 µM | > 50 µM |
| Cc1cccc2c1C(=NO)c1nc3ccccc3c(=O)n1-2 [Compound 4g, 7-Methylindolo[2,1-b]quinazolin-6,12-dione Oxime] | 6.2 ± 1.8 µM |  | 0.4 ± 0.04 µM | 15.5 | 35 | 14 ± 0.7 µM | > 50 µM | > 225 °C (dec.) | 25.2 ± 5.3 µM |  | > 50 µM | > 50 µM |
| O=c1c2cc(C(F)(F)F)ccc2nc2n1-c1ccccc1C2=NO [Compound 4i, 2-Trifluoromethylindolo[2,1-b]quinazolin-6,12-dione Oxime] | > 30 µM |  | 11 ± 1.4 µM | >3 | >3 | > 30 µM |  | > 225 °C (dec.) |  |  | 5.7 ± 1.2 µM | 5.6 ± 1.2 µM |
| O=c1c2ccc(Br)cc2nc2n1-c1ccccc1C2=NO [Compound 4k, 3-Bromoindolo[2,1-b]quinazolin-6,12-dione Oxime] | > 30 µM |  | 5.7 ± 1.8 µM | >6 | >6 | > 30 µM |  | > 225 °C (dec.) |  |  | > 50 µM | 24.1 ± 2.7 µM |
| O=c1c2ccc(F)cc2nc2n1-c1ccccc1C2=NO [Compound 4l, 3-Fluoroindolo[2,1-b]quinazolin-6,12-dione Oxime] | 1.1 ± 0.1 µM |  | 0.43 ± 0.04 µM | 2.6 | 1.7 | 0.72 ± 0.22 µM | 5 ± 0.1 µM | > 225 °C (dec.) | < 1 µM | 0.61 ± 0.04 µM | > 50 µM | > 50 µM |
| Cc1ccc2c(c1)C(=NO)c1nc3ccc(C)cc3c(=O)n1-2 [Compound 4o, 2,8-Dimethylindolo[2,1-b]quinazolin-6,12-dione Oxime] | 3.7 ± 0.5 µM |  | 0.87 ± 0.16 µM | 4.3 | 7.9 | 6.9 ± 0.2 µM | 8.1 ± 0.1 µM | > 300 °C (dec.) | < 1 µM | 0.8 ± 0.1 µM | > 50 µM | > 50 µM |
| Cc1cccc2c1C(=NO)c1nc3cccc(C)c3c(=O)n1-2 [Compound 4p, 1,7-Dimethylindolo[2,1-b]quinazolin-6,12-dione Oxime] | > 30 µM |  | > 30 µM |  |  | > 30 µM | > 50 µM | 190 to 191 °C | > 50 µM |  | > 50 µM | > 50 µM |
| COc1ccc2c(c1)-n1c(nc3cc(OC)ccc3c1=O)C2=NO [Compound 4r, 3,9-Dimethoxylindolo[2,1-b]quinazolin-6,12-dione Oxime] | 4.6 ± 0.6 µM |  | 3.2 ± 1.1 µM | 1.4 | 1.8 | 5.8 ± 1.6 µM |  | 292 to 293 °C |  |  | 4.3 ± 0.9 µM | 8.3 ± 1.3 µM |
| O=c1c2ccc(Br)cc2nc2n1-c1cc(Br)ccc1C2=NO [Compound 4s, 3,9-Dibromoindolo[2,1-b]quinazolin-6,12-dione Oxime] | > 30 µM |  | > 30 µM |  |  | > 30 µM |  | > 300 °C (dec.) |  |  | 16.9 ± 3.4 µM | 49.1 ± 8.3 µM |
| O=C(ON=C1c2ccccc2-n2c1nc1ccccc1c2=O)c1ccc2c(c1)OCO2 [Compound 5e, 6-(((Benzo[d][1,3]dioxol-5-carbonyl)oxy)imino)indolo[2,1-b]quinazolin-12(6H)-one] | 0.47 ± 0.08 µM |  | 0.27 ± 0.01 µM | 1.7 |  | 1.5 ± 0.6 µM | 3.5 ± 1.2 µM | 206 to 208 °C |  |  | 27.3 ± 1.4 µM | > 50 µM |
| O=c1c2ccccc2nc2n1-c1ccccc1C2=NO [TRYP-Ox, tryptanthrin-6-oxime, reference compound] |  |  |  |  |  |  | 3.8 ± 1.1 µM |  |  |  | > 50 µM | > 50 µM |

The next lines start with results.

| Kd (JNK1) | selectivity index (JNK3 versus JNK1 and JNK2) (JNK3) | Kd (JNK3) | Selectivity Index JNK1/JNK3 (JNK3) | Selectivity Index JNK2/JNK3 (JNK3) | Kd (JNK2) | IC50 [3] | melting point | IC50 [4, 5] | IC50 ([4]; 30 min pretreatment) | SMILES | IC50 at 24 h [1] | IC50 at 24 h [2] |
| --- | --- | --- | --- | --- | --- | --- | --- | --- | --- | --- | --- | --- |
| > 30 µM | > 7 | 0.86 ± 0.042 µM | >40 | >40 | > 30 µM |  |  |  |  | O=c1c2ccccc2nc2n1-c1ccc([N+](=O)[O-])cc1C2=NO [Compound 4a, 8-Nitroindolo[2,1-b]quinazolin-6,12-dione Oxime] | 4.1 ± 0.7 µM | 8.4 ± 0.9 µM |
| 3.2 ± 0.21 µM | > 7 | 0.41 ± 0.07 µM | 7.8 | 20.7 | 8.5 ± 3.2 µM | 2.1 ± 0.7 µM | > 225 °C (dec.) | 15.5 ± 3.8 µM |  | O=c1c2ccccc2nc2n1-c1ccc(Br)cc1C2=NO [Compound 4b, 8-Bromoindolo[2,1-b]quinazolin-6,12-dione Oxime] | > 50 µM | > 50 µM |
| > 30 µM |  | > 30 µM |  |  | > 30 µM |  | > 225 °C (dec.) |  |  | O=c1c2cc(Br)ccc2nc2n1-c1ccc([N+](=O)[O-])cc1C2=NO [Compound 4f, 2-Bromo-8-nitroindolo[2,1-b]quinazolin-6,12-dione Oxime] | 2.7 ± 0.6 µM | 3.8 ± 0.9 µM |
| 4.1 ± 0.6 µM |  | 1.9 ± 0.4 µM | 2.2 | 3.9 | 7.4 ± 0.6 µM |  | > 225 °C (dec.) |  |  | O=c1c2cc(Br)ccc2nc2n1-c1ccccc1C2=NO [Compound 4j, 2-Bromoindolo[2,1-b]quinazolin-6,12-dione Oxime] | 8.2 ± 1.6 µM | 12.5 ± 2.3 µM |
| > 30 µM |  | 6.1 ± 0.4 µM | >5.6 | >5.6 | > 30 µM | 8.3 ± 0.2 µM | > 225 °C (dec.) | 1.9 ± 0.3 µM |  | O=c1c2ccc([N+](=O)[O-])cc2nc2n1-c1ccccc1C2=NO [Compound 4m, 3-Nitroindolo[2,1-b]quinazolin-6,12-dione Oxime] | > 50 µM | > 50 µM |
| > 30 µM |  | 8.7 ± 1 µM | >3.9 | >3.9 | > 30 µM |  | > 225 °C (dec.) | 9.6 ± 1.3 µM |  | O=c1c2cc([N+](=O)[O-])ccc2nc2n1-c1ccccc1C2=NO [Compound 4n, 2-Nitroindolo[2,1-b]quinazolin-6,12-dione Oxime] | > 50 µM | 39.3 ± 3.1 µM |
| > 30 µM |  | > 30 µM |  |  | > 30 µM |  | 250 to 251 °C |  |  | O=c1c2cc(Br)ccc2nc2n1-c1ccc(Br)cc1C2=NO [Compound 4t, 2,8-Dibromoindolo[2,1-b]quinazolin-6,12-dione Oxime] | 9.2 ± 2.1 µM | 6.6 ± 0.3 µM |
